Laboratory results as given in publication PMC5838106, “Cathelicidin promotes inflammation by enabling binding of self-RNA to cell surface scavenger receptors” (Scientific Reports, 2018).
Where no end group is shown, it is not given here.

Key:
THP1 cells = assay: Cytokine expression in PMA-treated THP1 cells stimulated with cathelicidin peptide and U1 RNA; assay type: cell-based, human; details: PMA-treated THP1, peptide 3 μM 10 minutes, then U1 RNA 12.5 μg/mL overnight; n = 3
Description: Figure 1 Inflammatory activity of cathelicidin can be dissociated from antimicrobial function (a) Transcriptomic analysis by RNASeq of primary cultures of normal human epidermal keratinocytes (NHEKs) treated with LL37 (2.5 μM) with or without U1 RNA (2.5 μg/mL) for 24 hours. Shown are gene sets induced > 2 fold over vehicle, and after treatment with LL37, U1 RNA, or the combination of LL37 + U1 RNA. (b) Gene Ontology analysis of gene sets from (a). The number of genes related to each biological process is indicated in parentheses. (c) Amino acid sequence of synthetic cathelicidin peptides used in this study. (d) Antimicrobial assay of cathelicidin peptides against group A streptococcus (GAS). GAS were incubated with various concentrations of each peptide (0–25 μM) for 6 hours, then surviving colonies counted after plating on Todd Hewitt Broth gel. (e) IFN-β1 mRNA abundance and (f) IL-6 mRNA abundance in NHEKs after treatment with cathelicidin peptides (2.5 μM) for 10 minutes, then stimulated with U1 RNA (2.5 μg/mL) for a further 6 hours. (n = 3). (g) IFN-β1 mRNA abundance and (h) IL-6 mRNA abundance in […] (PMA)-treated THP1 cells after treatment with cathelicidin peptides (3 μM) for 10 minutes, then stimulated with U1 RNA (12.5 μg/mL) overnight. (n = 3). Data presented are from one representative experiment of at least two independent experiments. Error bars are SEM of three biological replicates. *P < 0.05, **P < 0.01, ***P < 0.001 by two-way ANOVA with Bonferroni’s post-hoc test. See also Fig. S1.
Primary neonatal human epidermal keratinocytes (NHEKs) was purchased from ThermoFisher Scientific. NHEKs were grown in serum free EpiLife medium supplemented with 0.06 mM CaCl2, EpiLife Defined growth supplements (EDGS) (ThermoFisher Scientific) and antibiotics, and passage 3–5 cells were used for experiment. Cells at 60–80% confluence were starved overnight without EDGS prior to treatment. THP1 was purchased from American Type Culture Collection (ATCC) (Manassas, VA). THP1 was cultured in RPMI-1640 (Sigma) supplemented with 10% Hyclone fetal calf serum (Thermofisher Scientific), and antibiotics, and passage 3–5 cells were used for experiment. Cells at 60–80% confluence were differentiated by Phorbol 12-myristate 13-acetate (PMA, Sigma) for 24 hours and then starved overnight without Hyclone fetal calf serum prior to treatment.
RNA was isolated from NHEKs using Purelink RNA isolation columns (ThermoFisher Scientific) according to the manufacturer’s instructions. RNA was quantified using a Nanodrop spectrophotometer (ThermoFisher Scientific), and up to 500 ng of RNA was reverse-transcribed using the iScript cDNA synthesis kit (Bio-Rad, Irvine, CA). Quantitative real-time PCR reactions were run on a CFX96 real-time detection system (Bio-Rad) using gene-specific primers and TaqMan probes (ThermoFisher Scientific). PCR primers and probes are shown on Table S2.

SR-B1 = target: T1, SR-B1 (Homo sapiens, UniProt Q8WTV0); assay: Proximity ligation assay for SR-B1 and U1 RNA; assay type: cell-based; details: NHEKs, peptide 2.5 μM 10 minutes, biotinylated U1 RNA 2.5 μg/mL, 4 °C, 1 hour
T1 construct: endogenous in cells; host or cells: NHEK (primary neonatal human epidermal keratinocytes)
T1 sequence (Q8WTV0 1-509 isoform Q8WTV0-2): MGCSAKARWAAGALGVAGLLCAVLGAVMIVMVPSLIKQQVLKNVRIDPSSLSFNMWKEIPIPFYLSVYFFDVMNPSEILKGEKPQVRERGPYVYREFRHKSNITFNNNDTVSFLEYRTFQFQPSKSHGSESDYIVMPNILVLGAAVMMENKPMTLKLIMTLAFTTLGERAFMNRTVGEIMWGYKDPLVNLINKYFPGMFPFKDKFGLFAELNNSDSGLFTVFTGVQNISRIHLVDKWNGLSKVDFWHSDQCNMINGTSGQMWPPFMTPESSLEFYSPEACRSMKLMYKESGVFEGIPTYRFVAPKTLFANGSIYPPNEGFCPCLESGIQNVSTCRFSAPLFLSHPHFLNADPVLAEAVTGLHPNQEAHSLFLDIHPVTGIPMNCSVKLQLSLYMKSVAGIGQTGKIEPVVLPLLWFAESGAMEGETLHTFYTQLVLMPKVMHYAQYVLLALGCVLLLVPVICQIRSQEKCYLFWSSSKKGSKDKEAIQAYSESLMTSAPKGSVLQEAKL
Description: Figure 3 Cathelicidin enables dsRNA to associate with scavenger receptors. (a) Proximity ligation assay for SR-B1 and U1 RNA. NHEKs were cultured with various cathelicidin peptides (2.5 μM) for 10 minutes, then with biotinylated U1 RNA (2.5 μg/mL) at 4 °C for 1 hour before physical proximity of SR-B1 and U1 RNA was determined using a fluorescence-based PLA that produces a red fluorescent signal. Nuclei (blue) are counterstained with DAPI. Scale bar represents 10 μm. (b) Signal count of (a) in 5 visual fields. (c) Proximity ligation assay as in (a) but reaction is detecting proximity of LL37 and SR-A6. Scale bar represents 100 μm. (d) Signal count of proximity ligation assay performed as in (a), but between U1 RNA and the indicated scavenger receptors, each count is PLA complexes observed in 5 visual fields. (e) Skin sections from healthy subject (control), or lesional skin from a psoriasis patient (Psoriasis) were fixed and PLA performed for LL37 and SR-B1. […]
NHEKs seeded into 8 chamber slides (Thermo Fisher Scientific) were incubated with various combination of U1 RNA, poly(I:C), cathelicidin peptides, and fucoidan for 1 hour at 4 °C allowing binding, but not internalization. […] Fluorescent PLA signals were evaluated using fluorescence microscopy (described above). Signals are counted by Duolink ImageTool software version 1.0.1.2 (Sigma-aldrich).

Substance | capacity to enable U1 RNA to amplify IFN-β1 or IL-6 expression (THP1 cells) | close association between U1 RNA and SR-B1 (PLA, <40 nm) (SR-B1)
LL37 | large responses | enabled close association
LLGDFFRKSKEKIGKEFKRIVQRIKDFLRNLVPR [LL34] | large responses | enabled close association
